# System: TNF-α production from human whole blood
# Experiment: Inhibition of TNF-α production from human whole blood (hWBA), LPS stimulated, ELISA
# Format: cell-based
# Conditions: Homo sapiens, 3.5 h, human whole blood diluted 1:1, LPS stimulated, 3.5 h, TNF-α by ELISA; read-out: hWBA (IC50)
row,IC50 [µM],Structure (SMILES)
1,0.17,CCNc1nnc(-c2ccc3cc([C@]4(CN5Cc6ccc(OC)cc6C5=O)NC(=O)NC4=O)oc3c2)o1 [Compound 2193]
2,0.112,CCN1CCN(c2ccc3oc([C@]4(CN5Cc6ccc(OC)c(F)c6C5=O)NC(=O)NC4=O)cc3n2)C[C@H]1C [Compound 1293]
3,0.46,COc1ccc2c(c1)C(=O)N(C[C@@]1(c3cc4nc(Nc5c(C)noc5C)ccc4o3)NC(=O)NC1=O)C2 [Compound 2133]
4,0.333,COCCN1CCN(c2ccc3oc([C@]4(CN5Cc6ccc(OC)cc6C5=O)NC(=O)NC4=O)cc3n2)CC1 [Compound 2160]

# Same assay, conditions: Homo sapiens, LPS-stimulated human whole blood, TNF-α by ELISA; read-out: hWBA (IC50)
row,Structure (SMILES),IC50 [µM]
1,Cn1cc(-c2ccc3c(c2)C(=O)N(C[C@@]2(c4cc5ncccc5o4)NC(=O)NC2=O)C3)cn1 [Compound 1742],3.72
2,COc1ccc2c(c1F)C(=O)N(C[C@@]1(c3cc4nc(-c5ccnc(N6CCN(C(=O)C(F)(F)F)CC6)c5)ccc4o3)NC(=O)NC1=O)C2 [Compound 1718],0.299
3,COc1ccc2c(c1)C(=O)N(C[C@@]1(c3cc4ncc(CO)cc4o3)NC(=O)NC1=O)C2 [Compound 1941],0.609
4,CCN1CCN(C(=NO)c2cnc3cc([C@]4(CN5Cc6ccc(OC)cc6C5=O)NC(=O)NC4=O)oc3c2)CC1 [Compound 1934],0.342
5,CCOC(=O)NCc1ccc2oc([C@]3(CN4Cc5ccc(OC)cc5C4=O)NC(=O)NC3=O)cc2c1 [Compound 324],1.69
6,CCNC(=O)NCc1ccc2oc([C@]3(CN4Cc5ccc(OC)cc5C4=O)NC(=O)NC3=O)cc2c1 [Compound 325],1.99
7,COc1ccc2c(c1)C(=O)N(C[C@@]1(c3cc4ncc(C(=O)NCCN(C)C)cc4o3)NC(=O)NC1=O)C2 [Compound 1932],0.8
8,COc1ccc2c(c1)C(=O)N(C[C@@]1(c3cc4nc(NC(=O)c5cccnc5)ccc4o3)NC(=O)NC1=O)C2 [Compound 1947],0.537
9,CCN1CCN(c2cc3cc([C@]4(CN5Cc6ccc(OC)cc6C5=O)NC(=O)NC4=O)oc3cn2)CC1 [Compound 308],0.343
10,COCCNC(=O)c1cnc2cc([C@]3(CN4Cc5ccc(OC)cc5C4=O)NC(=O)NC3=O)oc2c1 [Compound 1933],0.657

# Other lines, results leading:
row,IC50 [µM],Structure (SMILES)
1,0.125,COc1ccc2c(c1)C(=O)N(C[C@@]1(c3cc4nc(N5C[C@@H](O)CC5=O)ccc4o3)NC(=O)NC1=O)C2 [Compound 1531]
2,0.339,COC(=O)c1ccc2oc([C@]3(CN4Cc5ccc(OC)cc5C4=O)NC(=O)NC3=O)cc2n1 [Compound 1923]
3,0.252,COC(=O)NCCNc1nc2cc([C@]3(CN4Cc5ccc(OC)c(F)c5C4=O)NC(=O)NC3=O)oc2cc1F [Compound 1319]
4,1.38,CCOC(=O)[C@H]1CCC(=O)N1c1ccc2oc([C@]3(CN4Cc5ccc(OC)cc5C4=O)NC(=O)NC3=O)cc2n1 [Compound 1502]
5,2.69,COc1ccc2c(c1)C(=O)N(C[C@@]1(c3cc4nc(-c5ccc(S(N)(=O)=O)cc5)ccc4o3)NC(=O)NC1=O)C2 [Compound 1528]
6,0.546,COc1ccc2c(c1)C(=O)N(C[C@@]1(c3cc4ncc(C(=NO)N5CCN(c6cnccn6)CC5)cc4o3)NC(=O)NC1=O)C2 [Compound 1935]
7,1.51,CCN1CCN(c2ccc(O)c(-c3ccc([C@]4(CN5Cc6ccc(OC)cc6C5=O)NC(=O)NC4=O)cc3)n2)CC1 [Compound 902]
8,0.239,COC(=O)CCNc1nc2cc([C@]3(CN4Cc5ccc(OC)c(F)c5C4=O)NC(=O)NC3=O)oc2cc1F [Compound 1921]
9,0.529,COc1ccc2c(c1)C(=O)N(C[C@@]1(c3cc4cc(N5CCNC5=O)ncc4o3)NC(=O)NC1=O)C2 [Compound 307]
10,1.23,COc1ccc2c(c1)C(=O)N(C[C@@]1(c3cc4cc(CNC(=O)N(C)C)ccc4o3)NC(=O)NC1=O)C2 [Compound 326]

# Same assay, conditions: Homo sapiens, human whole blood diluted 1:1, LPS stimulated, TNF-α by ELISA; read-out: hWBA (IC50)
row,Structure (SMILES),IC50 [µM]
1,COc1ccc2c(c1)C(=O)N(C[C@@]1(c3cc4cnc(OC)cc4o3)NC(=O)NC1=O)C2 [Compound 2308],2.11
2,COc1ccc2c(c1)C(=O)N(C[C@@]1(c3cc4c(o3)CCN(S(C)(=O)=O)C4)NC(=O)NC1=O)C2 [Compound 2438],0.497
3,CCOC(=O)N1CCc2cc([C@]3(CN4Cc5ccc(OC)cc5C4=O)NC(=O)NC3=O)oc2C1 [Compound 2439],0.704
4,CCNC(=O)N1CCc2oc([C@]3(CN4Cc5ccc(OC)cc5C4=O)NC(=O)NC3=O)cc2C1 [Compound 2442],0.309
5,COc1ccc2c(c1)C(=O)N(C[C@@]1(c3cc4cnc(C#N)cc4o3)NC(=O)NC1=O)C2 [Compound 2444],0.759
6,COc1ccc2c(c1)C(=O)N(C[C@@]1(c3cc4nc(-c5ccc(S(N)(=O)=O)cc5)ccc4o3)NC(=O)NC1=O)C2 [Compound 2490],2.69
7,COc1ccc2c(c1)C(=O)N(C[C@@]1(c3cc4ncc(C(=O)NCCN(C)C)cc4o3)NC(=O)NC1=O)C2 [Compound 2465],0.8
8,COc1ccc2c(c1)C(=O)N(C[C@@]1(c3cc4c(o3)CCN(C(=O)N(C)C)C4)NC(=O)NC1=O)C2 [Compound 2441],0.501

# The remaining lines, values ahead:
row,IC50 [µM],Structure (SMILES)
1,1.97,COc1ccc2c(c1)C(=O)N(C[C@@]1(c3ccc(C(N)=O)cc3)NC(=O)NC1=O)C2 [Compound 2403]
2,0.189,COc1ccc2c(c1)C(=O)N(C[C@@]1(c3cc4nc(NS(C)(=O)=O)ccc4o3)NC(=O)NC1=O)C2 [Compound 2315]
3,0.322,COc1ccc2c(c1F)C(=O)N(C[C@@]1(c3cc4cc5c(cc4o3)C(=O)NCCC5)NC(=O)NC1=O)C2 [Compound 2492]
4,0.537,COc1ccc2c(c1)C(=O)N(C[C@@]1(c3cc4nc(NC(=O)c5cccnc5)ccc4o3)NC(=O)NC1=O)C2 [Compound 2313]
5,0.672,CCNC(=O)Nc1ccc2oc([C@]3(CN4Cc5ccc(OC)cc5C4=O)NC(=O)NC3=O)cc2n1 [Compound 2316]
6,0.646,COc1ccc2c(c1)C(=O)N(C[C@@]1(c3cc4c(o3)CCN(C(N)=O)C4)NC(=O)NC1=O)C2 [Compound 2440]
7,≥ 1000,COc1ccc2c(c1)C(=O)N(C[C@@]1(c3cc4c(o3)CCN(C(=O)Nc3cccnc3)C4)NC(=O)NC1=O)C2 [Compound 2443]

# Same assay, conditions: Homo sapiens, read-out: hWBA (IC50), LPS-stimulated human whole blood, TNF-α by ELISA
row,IC50 [µM],Structure (SMILES)
1,0.308,COc1ccc2c(c1F)C(=O)N(C[C@@]1(c3cc4nc(C)c(-c5ccc(N)nc5)cc4o3)NC(=O)NC1=O)C2 [Compound 1919]

# Biological target: T1, purified catalytic domain of recombinant human TACE (rhTACEc) (Homo sapiens, UniProt P78536, N452Q/S266A)
# T1 construct: 6xHis (C); made in house; host or cells: baculovirus/Hi5 insect cells
# T1 sequence (P78536 215-477 S266A/N452Q): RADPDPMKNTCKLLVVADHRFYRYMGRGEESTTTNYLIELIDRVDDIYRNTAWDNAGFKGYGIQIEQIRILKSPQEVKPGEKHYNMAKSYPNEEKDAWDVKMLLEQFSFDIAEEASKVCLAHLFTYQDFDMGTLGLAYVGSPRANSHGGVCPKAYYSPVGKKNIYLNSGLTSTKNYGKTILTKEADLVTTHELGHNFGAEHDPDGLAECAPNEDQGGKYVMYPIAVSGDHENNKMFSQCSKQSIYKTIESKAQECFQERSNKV
# Experiment: TACE kinetic assay: cleavage of internally quenched peptide substrate TNF-FRET 2 (Ki)
# Format: biochemical
# Conditions: Ki, TNF-FRET 2 substrate
row,Structure (SMILES),Ki [µM]
1,CNC(=O)c1cnc2cc([C@]3(CN4Cc5ccc(OC)cc5C4=O)NC(=O)NC3=O)oc2c1 [Compound 1930],0.00087
2,CNC(=O)c1cnc2cc([C@]3(CN4Cc5ccc(OC)cc5C4=O)NC(=O)NC3=O)oc2c1 [Compound 2461],0.000871

# Same assay, conditions: TNF-FRET 2 substrate, read-out: Ki
row,Structure (SMILES),Ki [µM]
1,Cn1cc(-c2ccc3c(c2)C(=O)N(C[C@@]2(c4cc5ncccc5o4)NC(=O)NC2=O)C3)cn1 [Compound 1742],0.00363
2,COc1ccc2c(c1F)C(=O)N(C[C@@]1(c3cc4nc(-c5ccnc(N6CCN(C(=O)C(F)(F)F)CC6)c5)ccc4o3)NC(=O)NC1=O)C2 [Compound 1718],0.00048
3,COc1ccc2c(c1)C(=O)N(C[C@@]1(c3cc4ncc(CO)cc4o3)NC(=O)NC1=O)C2 [Compound 1941],0.00059
4,COc1ccc2c(c1)C(=O)N(C[C@@]1(c3cc4cnc(OC)cc4o3)NC(=O)NC1=O)C2 [Compound 2308],0.000328
5,COc1ccc2c(c1F)C(=O)N(C[C@@]1(c3cc4cc(-c5c(C)nn(C)c5C)c(F)cc4o3)NC(=O)NC1=O)C2 [Compound 1182],0.00041
6,COc1ccc2c(c1F)C(=O)N(C[C@]1(c3ccco3)NC(=O)NC1=O)C2 [Compound 312],0.501
7,CCN1CCN(c2ccc3oc([C@@]4(CN5Cc6ccc(OCC7CC7)c(F)c6C5=O)NC(=O)NC4=O)cc3n2)CC1 [Compound 901],0.501
8,COc1ccc2c(c1)C(=O)N(C[C@@]1(c3ccc(-c4ccc(F)c(C#N)c4)cc3)NC(=O)NC1=O)C2 [Compound 1506],0.0064
9,O=C1NC(=O)C(CN2Cc3ccccc3C2=O)(c2ccccc2)N1 (centres unmarked) [Compound 1297],0.0164

# More lines, now with the values ahead:
row,Ki [µM],Structure (SMILES)
1,0.000253,CCNc1nnc(-c2ccc3cc([C@]4(CN5Cc6ccc(OC)cc6C5=O)NC(=O)NC4=O)oc3c2)o1 [Compound 2193]
2,0.00079,CCN1CCN(c2ccc3oc([C@]4(CN5Cc6ccc(OC)c(F)c6C5=O)NC(=O)NC4=O)cc3n2)C[C@H]1C [Compound 1293]
3,0.0013,COc1ccc2c(c1)C(=O)N(C[C@@]1(c3ccc(C(N)=O)cc3)NC(=O)NC1=O)C2 [Compound 2403]
4,0.000635,COc1ccc2c(c1)C(=O)N(C[C@@]1(c3cc4nc(Nc5c(C)noc5C)ccc4o3)NC(=O)NC1=O)C2 [Compound 2133]
5,0.00065,COc1ccc2c(c1)C(=O)N(C[C@@]1(c3cc4nc(N5C[C@@H](O)CC5=O)ccc4o3)NC(=O)NC1=O)C2 [Compound 1531]
